This passage reports EC50 and IC50 results from patent publication US20250368627A1, “PYRAZOLESULFONAMIDES AS ANTITUMOR AGENTS” (Peloton Therapeutics, Inc., a fully owned subsidiary of …, priority 2019, published 2025).

Test [1] relates to HCT116 human colorectal carcinoma cells. Kind of test: CellTiter-Glo Luminescent Cell Viability Assay. Format: cell-based. Conditions: HCT-116, 72 h, 3 days. Summed up:
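HCT116 cells were exposed for 3 days to compound in triplicate at final concentrations of 5 to 0.0002 […] (1:3 dilutions). Viability was read by CellTiter-Glo luminescence, and IC50 values were calculated.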

Test [2] concerns the target T1, DDB1DB/DCAF15 and RBM39 R1R2 complex (Homo sapiens, UniProt Q14498+Q66K64).
T1 construct: Amino acids 150 to 331 of RBM39 were cloned into pGEX4T3; GST (from vector pGEX4T3); TEV cleavage site (N); made in house; host or cells: DDB1DB/His-DCAF15: baculovirus/Sf9 co-expression; RBM39 R1R2: E. coli (pGEX4T3)
Kind of test: DCAF15 RBM39 Complex Formation Assay (FRET). The class given is binding. As to conditions: FRET ratio Em 665/Em 615, incubated overnight at 4° C. Summed up:
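Ternary complex formation read by TR-FRET (Em 665/615, excitation 340 nm) after overnight incubation at 4° C of 20 nM baculovirus DDB1DB/His-DCAF15 and 50 nM E. coli RBM39 RRM1-RRM2 FLAG fragment with 14-point, 3-fold compound dilutions from 1 μM; EC50 from 4-parameter fit.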

T1 sequence (Q66K64 whole entry, the tested form may be a part): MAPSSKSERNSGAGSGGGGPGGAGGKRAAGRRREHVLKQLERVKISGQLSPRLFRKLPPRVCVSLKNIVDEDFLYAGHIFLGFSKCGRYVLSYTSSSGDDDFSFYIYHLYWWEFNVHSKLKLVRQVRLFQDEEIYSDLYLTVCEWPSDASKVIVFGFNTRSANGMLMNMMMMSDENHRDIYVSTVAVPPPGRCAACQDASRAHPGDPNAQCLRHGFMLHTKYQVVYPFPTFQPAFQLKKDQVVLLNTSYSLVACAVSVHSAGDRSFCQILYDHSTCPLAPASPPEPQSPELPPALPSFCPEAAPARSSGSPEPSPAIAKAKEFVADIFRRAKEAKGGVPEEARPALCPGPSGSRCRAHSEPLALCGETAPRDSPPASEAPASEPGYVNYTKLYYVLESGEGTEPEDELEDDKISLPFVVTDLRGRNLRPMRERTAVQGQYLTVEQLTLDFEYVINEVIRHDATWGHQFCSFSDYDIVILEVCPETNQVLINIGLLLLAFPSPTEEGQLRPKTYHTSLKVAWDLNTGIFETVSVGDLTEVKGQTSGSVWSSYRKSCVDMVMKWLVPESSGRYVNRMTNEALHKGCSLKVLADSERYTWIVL
T1 sequence (Q14498 150-331): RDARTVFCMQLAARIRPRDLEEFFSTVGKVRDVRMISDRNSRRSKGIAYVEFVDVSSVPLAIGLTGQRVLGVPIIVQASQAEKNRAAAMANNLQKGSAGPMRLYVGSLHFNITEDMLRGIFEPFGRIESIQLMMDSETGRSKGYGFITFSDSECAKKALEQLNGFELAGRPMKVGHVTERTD
T1 sequence (Q16531 with tags, fused parts or gaps DEL396-708 partner): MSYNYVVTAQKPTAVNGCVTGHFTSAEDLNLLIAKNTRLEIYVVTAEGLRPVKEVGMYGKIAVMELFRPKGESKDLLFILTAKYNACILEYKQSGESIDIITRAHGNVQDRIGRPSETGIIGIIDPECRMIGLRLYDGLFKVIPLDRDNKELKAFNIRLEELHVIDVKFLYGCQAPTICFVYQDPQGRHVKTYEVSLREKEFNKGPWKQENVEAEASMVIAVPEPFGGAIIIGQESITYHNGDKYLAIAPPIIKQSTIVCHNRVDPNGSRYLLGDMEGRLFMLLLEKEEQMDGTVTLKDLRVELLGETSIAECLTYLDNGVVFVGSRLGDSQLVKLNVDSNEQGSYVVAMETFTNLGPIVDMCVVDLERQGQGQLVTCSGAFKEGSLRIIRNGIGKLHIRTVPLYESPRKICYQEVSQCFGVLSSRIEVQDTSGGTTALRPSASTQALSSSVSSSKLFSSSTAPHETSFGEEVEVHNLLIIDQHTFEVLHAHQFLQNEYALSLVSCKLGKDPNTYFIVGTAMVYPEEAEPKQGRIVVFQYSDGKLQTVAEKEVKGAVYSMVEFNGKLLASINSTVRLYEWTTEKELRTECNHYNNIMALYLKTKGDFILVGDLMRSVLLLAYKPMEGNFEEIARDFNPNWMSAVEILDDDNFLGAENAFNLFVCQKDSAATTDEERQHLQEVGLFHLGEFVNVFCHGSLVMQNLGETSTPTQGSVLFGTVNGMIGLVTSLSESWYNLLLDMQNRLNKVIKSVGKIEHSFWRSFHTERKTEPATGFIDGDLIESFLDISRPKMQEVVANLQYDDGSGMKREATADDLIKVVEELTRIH

For the compound `COCC(CO)n1cc(S(=O)(=O)Nc2ccc(C)c3c(C#N)c[nH]c23)cn1` (centres unmarked) [Compound 263, N-(3-cyano-4-methyl-1H-indol-7-yl)-1-[1-(hydroxymethyl)-2-methoxy-ethyl]pyrazole-4-sulfonamide], the EC50 in test [1] was in the range of 250 to 1000 nM. In addition, the half-maximal inhibitory concentration (IC50) in test [2] is under 250 nM.
For `Cc1ccc(NS(=O)(=O)c2cnn(C[C@@H](C)CO)c2)c2[nH]cc(C#N)c12` [Compound 264, N-(3-cyano-4-methyl-1H-indol-7-yl)-1-[(2R)-3-hydroxy-2-methyl-propyl]pyrazole-4-sulfonamide] the same measures were under 250 nM and under 250 nM.
For `C[C@@H](CO)Cn1cc(S(=O)(=O)Nc2ccc(Cl)c3c(C#N)c[nH]c23)cn1` [Compound 265, N-(4-chloro-3-cyano-1H-indol-7-yl)-1-[(2R)-3-hydroxy-2-methyl-propyl]pyrazole-4-sulfonamide] the same measures were 250 to 1000 nM and under 250 nM.
For `C[C@@H](CO)n1cc(S(=O)(=O)Nc2ccc(Cl)c3c(C#N)c[nH]c23)cn1` [Compound 266, N-(4-chloro-3-cyano-1H-indol-7-yl)-1-[(1S)-2-hydroxy-1-methyl-ethyl]pyrazole-4-sulfonamide] the same measures were 250 to 1000 nM and under 250 nM.
Consider `C[C@@H](CO)n1cc(S(=O)(=O)Nc2ccc(F)c3c(C#N)c[nH]c23)cn1` [Compound 267, N-(3-cyano-4-fluoro-1H-indol-7-yl)-1-[(1S)-2-hydroxy-1-methyl-ethyl]pyrazole-4-sulfonamide], for which the half-maximal effective concentration (EC50) in test [1] is 250 to 1000 nM. In addition, the IC50 in test [2] is under 250 nM.
For `Cc1ccc(NS(=O)(=O)c2cnn(C3(CO)CC3)c2)c2[nH]cc(C#N)c12` [Compound 268, N-(3-cyano-4-methyl-1H-indol-7-yl)-1-[1-(hydroxymethyl)cyclopropyl]pyrazole-4-sulfonamide] the same measures were under 250 nM and under 250 nM.
For `N#Cc1c[nH]c2c(NS(=O)(=O)c3cnn(C4(CO)CC4)c3)ccc(Cl)c12` [Compound 269, N-(4-chloro-3-cyano-1H-indol-7-yl)-1-[1-(hydroxymethyl)cyclopropyl]pyrazole-4-sulfonamide] the same measures were 250 to 1000 nM and under 250 nM.
For `Cc1ccc(NS(=O)(=O)c2cnn(CCC(C)O)c2)c2[nH]cc(C#N)c12` (centres unmarked) [Compound 270, N-(3-cyano-4-methyl-1H-indol-7-yl)-1-(3-hydroxybutyl)pyrazole-4-sulfonamide] the same measures were 250 to 1000 nM and under 250 nM.
As for `CCn1ncc(S(=O)(=O)Nc2ccc(C)c3c(C#N)c[nH]c23)c1N` [Compound 271, 5-amino-N-(3-cyano-4-methyl-1H-indol-7-yl)-1-ethyl-pyrazole-4-sulfonamide], the 50% effective concentration (EC50) in test [1] is under 250 nM. Besides, the half-maximal inhibitory concentration (IC50) in test [2] was under 250 nM.
As to `CCn1ncc(S(=O)(=O)Nc2ccc(F)c3c(C#N)c[nH]c23)c1N` [Compound 272, 5-amino-N-(3-cyano-4-fluoro-1H-indol-7-yl)-1-ethyl-pyrazole-4-sulfonamide], in test [1], the half-maximal effective concentration (EC50) was 250 to 1000 nM. The IC50 in test [2] is under 250 nM.
For `CCn1ncc(S(=O)(=O)Nc2ccc(Cl)c3c(C#N)c[nH]c23)c1N` [Compound 273, 5-amino-N-(4-chloro-3-cyano-1H-indol-7-yl)-1-ethyl-pyrazole-4-sulfonamide] the same measures were under 250 nM and under 250 nM.
For `Cc1ccc(NS(=O)(=O)c2cnn([C@H](C)[C@H](C)O)c2)c2[nH]cc(C#N)c12` [Compound 274, N-(3-cyano-4-methyl-1H-indol-7-yl)-1-[(1R,2S)-2-hydroxy-1-methyl-propyl]pyrazole-4-sulfonamide] the same measures were under 250 nM and under 250 nM.
For `C[C@H](O)[C@@H](C)n1cc(S(=O)(=O)Nc2ccc(Cl)c3c(C#N)c[nH]c23)cn1` [Compound 275, N-(4-chloro-3-cyano-1H-indol-7-yl)-1-[(1R,2S)-2-hydroxy-1-methyl-propyl]pyrazole-4-sulfonamide] the same measures were 250 to 1000 nM and under 250 nM.
For `Cc1ccc(NS(=O)(=O)c2cnn(CC(C)(C)O)c2Cl)c2[nH]cc(C#N)c12` [Compound 276, 5-chloro-N-(3-cyano-4-methyl-1H-indol-7-yl)-1-(2-hydroxy-2-methyl-propyl)pyrazole-4-sulfonamide], in test [1], the concentration for a half-maximal effect (EC50) was 250 to 1000 nM. The IC50 in test [2] was under 250 nM.
For `Cc1ccc(NS(=O)(=O)c2cnn(CC(F)F)c2N)c2[nH]cc(C#N)c12` [Compound 277, 5-amino-N-(3-cyano-4-methyl-1H-indol-7-yl)-1-(2,2-difluoroethyl)pyrazole-4-sulfonamide] the same measures were under 250 nM and under 250 nM.
For `N#Cc1c[nH]c2c(NS(=O)(=O)c3cnn(CC(F)F)c3N)ccc(Cl)c12` [Compound 278, 5-amino-N-(4-chloro-3-cyano-1H-indol-7-yl)-1-(2,2-difluoroethyl)pyrazole-4-sulfonamide] the same measures were under 250 nM and under 250 nM.
For `N#Cc1c[nH]c2c(NS(=O)(=O)c3cnn(CC(F)F)c3N)ccc(F)c12` [Compound 279, 5-amino-N-(4-cyano-4-fluoro-1H-indol-7-yl)-1-(2,2-difluoroethyl)pyrazole-4-sulfonamide] the same measures were 250 to 1000 nM and under 250 nM.
As for `CC(C)(O)Cn1ncc(S(=O)(=O)Nc2ccc(F)c3c(C#N)c[nH]c23)c1Cl` [Compound 280, 5-chloro-N-(3-cyano-4-fluoro-1H-indol-7-yl)-1-(2-hydroxy-2-methyl-propyl)pyrazole-4-sulfonamide], the 50% effective concentration (EC50) in test [1] is over 1000 nM. Also, the 50% inhibitory concentration (IC50) in test [2] was under 250 nM.
For `Cc1ccc(NS(=O)(=O)c2cnn([C@H](C)CF)c2)c2[nH]cc(C#N)c12` [Compound 281, N-(3-cyano-4-methyl-1H-indol-7-yl)-1-[(1R)-2-fluoro-1-methyl-ethyl]pyrazole-4-sulfonamide] the same measures were under 250 nM and under 250 nM.
Regarding `Cn1ncc(S(=O)(=O)Nc2ccc(F)c3c(C#N)c[nH]c23)c1N` [Compound 282, 5-amino-N-(3-cyano-4-fluoro-1H-indol-7-yl)-1-methyl-pyrazole-4-sulfonamide], in test [1], the concentration giving a half-maximal response (EC50) fell in the range of 250 to 1000 nM. Moreover, the concentration for half-maximal inhibition (IC50) in test [2] was under 250 nM.
For `Cc1ccc(NS(=O)(=O)c2cnn(CC(C)(C)O)c2N)c2[nH]cc(C#N)c12` [Compound 283, 5-amino-N-(3-cyano-4-methyl-1H-indol-7-yl)-1-(2-hydroxy-2-methyl-propyl)pyrazole-4-sulfonamide] the same measures were 250 to 1000 nM and under 250 nM.
As for `Cc1ccc(NS(=O)(=O)c2cnn(C(F)F)c2N)c2[nH]cc(C#N)c12` [Compound 284, 5-amino-N-(3-cyano-4-methyl-1H-indol-7-yl)-1-(difluoromethyl)pyrazole-4-sulfonamide], in test [1], the 50% effective concentration (EC50) is under 250 nM. For the same compound, in test [2], the half-inhibitory concentration (IC50) is under 250 nM.
Regarding `N#Cc1c[nH]c2c(NS(=O)(=O)c3cnn(C(F)F)c3N)ccc(F)c12` [Compound 285, 5-amino-N-(3-cyano-4-fluoro-1H-indol-7-yl)-1-(difluoromethyl)pyrazole-4-sulfonamide], in test [1], the concentration giving a half-maximal response (EC50) was in the range of 250 to 1000 nM. Moreover, in test [2], the 50% inhibitory concentration (IC50) is under 250 nM.
As to `C[C@H]([C@@H](C)O)n1cc(S(=O)(=O)Nc2ccc(Cl)c3c(C#N)c[nH]c23)cn1` [Compound 286, N-(4-chloro-3-cyano-1H-indol-7-yl)-1-[(1R,2R)-2-hydroxy-1-methyl-propyl]pyrazole-4-sulfonamide], the half-maximal effective concentration (EC50) in test [1] lay within 250 to 1000 nM. Besides, the 50% inhibitory concentration (IC50) in test [2] was under 250 nM.
Turning to `Cc1ccc(NS(=O)(=O)c2cnn([C@H](C)[C@@H](C)O)c2)c2[nH]cc(C#N)c12` [Compound 287, N-(3-cyano-4-methyl-1H-indol-7-yl)-1-[(1R,2R)-2-hydroxy-1-methyl-propyl]pyrazole-4-sulfonamide], the EC50 in test [1] was under 250 nM. In test [2], the IC50 is under 250 nM.
For `C[C@H]([C@@H](C)O)n1cc(S(=O)(=O)Nc2ccc(F)c3c(C#N)c[nH]c23)cn1` [Compound 288, N-(3-cyano-4-fluoro-1H-indol-7-yl)-1-[(1R,2R)-2-hydroxy-1-methyl-propyl]pyrazole-4-sulfonamide], the EC50 in test [1] was in the range of 250 to 1000 nM. In test [2], the IC50 was under 250 nM.
For `CC(C)(O)Cn1ncc(S(=O)(=O)Nc2ccc(Cl)c3c(C#N)c[nH]c23)c1N` [Compound 289, 5-amino-N-(4-chloro-3-cyano-1H-indol-7-yl)-1-(2-hydroxy-2-methyl-propyl)pyrazole-4-sulfonamide] the same measures were 250 to 1000 nM and under 250 nM.
For `CCn1cc(S(=O)(=O)Nc2ccc(C)c3c(C#N)c[nH]c23)c(N)n1` [Compound 290, 3-amino-N-(3-cyano-4-methyl-1H-indol-7-yl)-1-ethyl-pyrazole-4-sulfonamide] the same measures were under 250 nM and under 250 nM.
For `CCn1cc(S(=O)(=O)Nc2ccc(F)c3c(C#N)c[nH]c23)c(N)n1` [Compound 291, 3-amino-N-(3-cyano-4-fluoro-1H-indol-7-yl)-1-ethyl-pyrazole-4-sulfonamide] the same measures were 250 to 1000 nM and under 250 nM.
Turning to `N#Cc1c[nH]c2c(NS(=O)(=O)c3cnn(C(F)F)c3N)cccc12` [Compound 292], in test [1], the concentration giving a half-maximal response (EC50) is under 250 nM. In test [2], the IC50 was under 250 nM.
Regarding `Cc1ccc(NS(=O)(=O)c2cnn(C(C)(F)CO)c2)c2[nH]cc(C#N)c12` (centres unmarked) [Compound 293, N-(3-cyano-4-methyl-1H-indol-7-yl)-1-(1-fluoro-2-hydroxy-1-methyl-ethyl)pyrazole-4-sulfonamide], the EC50 in test [1] lay in the range of 250 to 1000 nM. Also, the IC50 in test [2] was under 250 nM.

The EC50 is the concentration needed to bring the measured effect to its halfway point. For orientation: IC50 means the concentration that inhibits the measured activity by half.
